The text below walks through data of patent US11566002B2, “Substituted tetrahydrocyclopenta[C]pyrroles, substituted dihydropyrrolizines, analogues thereof, and methods using same” (priority 2018, dated 2023).

The structures appear in SMILES notation. Read-outs that look alike come from different tables or passages of the source.

In the test the test system is HBV rcDNA. The experiment in a line: HepDE19 assay with bDNA quantitation of HBV rcDNA. It is filed as cell-based, hepatitis B virus. As for the experimental part: HepDE19 Assay with bDNA Quantitation of HBV rcDNA:
HepDE19 cell culture system is a HepG2 (human hepatocarcinoma) derived cell line that supports HBV DNA replication and cccDNA formation in a tetracycline (Tet)-regulated manner and produces HBV rcDNA and a detectable reporter molecule dependent on the production and maintenance of cccDNA (Guo, et al., 2007, J. Virol. 81:12472-12484).
HepDE19 (50,000 cells/well) were plated in 96-well collagen-coated tissue-culture treated microtiter plates in DMEM/F12 medium supplemented with 10% fetal bovine serum, 1% penicillin-streptomycin and 1 μg/mL tetracycline and incubated in a humidified incubator at 37° C. and 5% CO2 overnight. Next day, the cells were switched to fresh medium without tetracycline and incubated for 4 hours at 37° C. and 5% CO2. The cells were treated with fresh Tet-free medium with compounds at concentrations starting at 25 μM and a serial, ½ log, 8-point, titration series in duplicate. The final DMSO concentration in the assay was 0.5%. The plates were incubated for 7 days in a humidified incubator at 37° C. and 5% CO2. Following a 7 day-incubation, the level of rcDNA present in the inhibitor-treated wells was measured using a Quantigene 2.0 bDNA assay kit (Affymetrix, Santa Clara, Calif.) with HBV specific custom probe set and manufacturers instructions. Concurrently, the effect of compounds on cell viability was assessed using replicate plates, plated at a density of 5,000 cells/well and incubated for 4 days, to determine the ATP content as a measure of cell viability using the cell-titer glo reagent (CTG; Promega Corporation, Madison, Wis.) as per manufacturer's instructions. The plates were read using a Victor luminescence plate reader (PerkinElmer Model 1420 Multilabel counter) and the relative luminescence units (RLU) data generated from each well was calculated as % inhibition of the untreated control wells and analyzed using XL-Fit module in Microsoft Excel to determine EC50 and EC90 (bDNA) and CC50 (CTG) values using a 4-parameter curve fitting algorithm.
Representative compounds of the invention were tested for their abilities to inhibit formation of relaxed circular DNA (rcDNA) in a HepDE19 assay, as described elsewhere herein.

The mark [1] stands for this setting: Hepatitis B virus, HepDE19, 168 h, read-out: DE-19 bDNA EC50 (μM), HepDE19 cells, Tet-free medium, 7 day-incubation, rcDNA measured by Quantigene 2.0 bDNA assay, top concentration 25 μM.
[2] abbreviates: Hepatitis B virus, HepDE19, 168 h, HepDE19 cells, Tet-free medium, 7 day-incubation, rcDNA measured by Quantigene 2.0 bDNA assay, top concentration 25 μM, read-out: DE-19 bDNA EC50.
The mark [3] stands for this setting: read-out: DE-19 bDNA EC50, HepDE19 cells, Tet-free medium, 7 day-incubation, rcDNA measured by Quantigene 2.0 bDNA assay, top concentration 25 μM.
The mark [4] stands for this setting: HepDE19 cells, Tet-free medium, 7 day-incubation, rcDNA measured by Quantigene 2.0 bDNA assay, top concentration 25 μM, read-out: DE-19 bDNA EC50.

Turning to `COC(=O)NC1CCc2c1cn(C)c2C(=O)Nc1ccc(F)c(Cl)c1` (racemic) [Compound 1, methyl 1-(3-chloro-4-fluorophenylcarbamoyl)-2-methyl-2,4,5,6-tetrahydrocyclopenta[c]pyrrol-4-ylcarbamate], the EC50 under setting [1] was determined as 0.09 µM.
In the case of `CNC(=O)NC1CCc2c1cn(C)c2C(=O)Nc1ccc(F)c(Cl)c1` (racemic) [Compound 3, N-(3-chloro-4-fluorophenyl)-2-methyl-4-(3-methylureido)-2,4,5,6-tetrahydrocyclopenta[c]pyrrole-1-carboxamide], the EC50 under setting [1] was 0.94 µM.
`CNC(=O)NC1CCc2c1c[nH]c2C(=O)Nc1ccc(F)c(Cl)c1` (racemic) [Compound 8, N-(3-chloro-4-fluorophenyl)-4-(3-methylureido)-2,4,5,6-tetrahydrocyclopenta[c]pyrrole-1-carboxamide]: the EC50 under setting [2] came out at 18 µM.
On the same count and under the same terms, the same measure for `CC(C)OC(=O)C1(COC(=O)NC2CCc3c2cn(C)c3C(=O)Nc2ccc(F)c(Cl)c2)CC(F)(F)C1` (racemic) [Compound 46, isopropyl 1-((((1-((3-chloro-4-fluorophenyl)carbamoyl)-2-methyl-2,4,5,6-tetrahydrocyclopenta[c]pyrrol-4-yl)carbamoyl)oxy)methyl)-3,3-difluorocyclobutane-1-carboxylate]: 2.3 µM; for `Cn1cc2c(c1C(=O)Nc1ccc(F)c(Cl)c1)CCC2NC(=O)OCC1(C(=O)O)CC(F)(F)C1` (racemic) [Compound 53, 1-((((1-((3-chloro-4-fluorophenyl)carbamoyl)-2-methyl-2,4,5,6-tetrahydrocyclopenta [c]pyrrol-4-yl)carbamoyl)oxy)methyl)-3,3-difluorocyclobutane-1-carboxylic acid]: 2.7 µM.
The same measure, in the same setting: the same measure for `Cn1cc2c(c1C(=O)Nc1ccc(F)c(Cl)c1)CCC2NC(=O)OCc1nc[nH]n1` (racemic) [Compound 54, (1H-1,2,4-triazol-3-yl)methyl (1-((3-chloro-4-fluorophenyl)carbamoyl)-2-methyl-2,4,5,6-tetrahydrocyclopenta[c]pyrrol-4-yl)carbamate]: 0.06 µM.
The same measure, in the same setting: the figure for `Cn1cc2c(c1C(=O)Nc1ccc(F)c(Cl)c1)CCC2NC(=O)OCc1nn[nH]n1` (racemic) [Compound 148, (2H-tetrazol-5-yl)methyl (1-((3-chloro-4-fluorophenyl)carbamoyl)-2-methyl-2,4,5,6-tetrahydrocyclopenta[c]pyrrol-4-yl)carbamate] is 1.9 µM.
Consider `COC(=O)NC1CCc2c1cn(C)c2C(=O)Nc1ccc(F)c(Cl)c1` (single isomer, unassigned) [Compound 4, Methyl 1-(3-chloro-4-fluorophenylcarbamoyl)-2-methyl-2,4,5,6-tetrahydrocyclopenta[c] pyrrol-4-ylcarbamate], for which the EC50 under setting [3] amounted to 0.05 µM.
As for `COC(=O)NC1CCc2c1cn(C)c2C(=O)Nc1ccc(F)c(Cl)c1` (single isomer, unassigned) [Compound 5, Methyl 1-(3-chloro-4-fluorophenylcarbamoyl)-2-methyl-2,4,5,6-tetrahydrocyclopenta[c] pyrrol-4-ylcarbamate], the EC50 under setting [3] turned out to be 0.99 µM.
Regarding `CNC(=O)NC1CCc2c1c[nH]c2C(=O)Nc1ccc(F)c(Cl)c1` (single isomer, unassigned) [Compound 10, N-(3-Chloro-4-fluorophenyl)-4-(3-methylureido)-2,4,5,6-tetrahydrocyclopenta[c]pyrrole-1-carboxamide], the EC50 under setting [4] amounted to 16 µM.
The same measure, in the same setting: the same measure for `CNC(=O)NC1CCc2c1c[nH]c2C(=O)Nc1ccc(F)c(Cl)c1` (single isomer, unassigned) [Compound 11, N-(3-Chloro-4-fluorophenyl)-4-(3-methylureido)-2,4,5,6-tetrahydrocyclopenta[c]pyrrole-1-carboxamide]: 2.4 µM.
Regarding `Cn1cc2c(c1C(=O)Nc1ccc(F)c(Cl)c1)CCC2NS(=O)(=O)C1CC1` (single isomer, unassigned) [Compound 13, N-(3-Chloro-4-fluorophenyl)-4-(cyclopropanesulfonamido)-2-methyl-2,4,5,6-tetrahydrocyclopenta [c]pyrrole-1-carboxamide], under setting [4], the EC50 stood at 6.8 µM.
The same measure, in the same setting: the same measure for `Cn1cc2c(c1C(=O)Nc1ccc(F)c(Cl)c1)CCC2NS(=O)(=O)C1CC1` (single isomer, unassigned) [Compound 14, N-(3-Chloro-4-fluorophenyl)-4-(cyclopropanesulfonamido)-2-methyl-2,4,5,6-tetrahydrocyclopenta [c]pyrrole-1-carboxamide]: 0.07 µM; for `CCn1cc2c(c1C(=O)Nc1ccc(F)c(Cl)c1)CCC2NS(=O)(=O)C1CC1` (single isomer, unassigned) [Compound 15, N-(3-Chloro-4-fluorophenyl)-4-(cyclopropanesulfonamido)-2-ethyl-2,4,5,6-tetrahydrocyclopenta[c]pyrrole-1-carboxamide]: no less than 25 µM; for `CCn1cc2c(c1C(=O)Nc1ccc(F)c(Cl)c1)CCC2NS(=O)(=O)C1CC1` (single isomer, unassigned) [Compound 16, N-(3-Chloro-4-fluorophenyl)-4-(cyclopropanesulfonamido)-2-ethyl-2,4,5,6-tetrahydrocyclopenta[c]pyrrole-1-carboxamide]: 0.13 µM.
Take `CCn1cc2c(c1C(=O)Nc1ccc(F)c(Cl)c1)CCC2NC(=O)C1CC1` (single isomer, unassigned) [Compound 17, N-(3-Chloro-4-fluorophenyl)-4-(cyclopropanecarboxamido)-2-ethyl-2,4,5,6-tetrahydrocyclopenta[c]pyrrole-1-carboxamide]: the EC50 under setting [2] worked out at 4.9 µM.
For the molecule `CCn1cc2c(c1C(=O)Nc1ccc(F)c(Cl)c1)CCC2NC(=O)OCc1ncn(C)n1` (single isomer, unassigned) [Compound 19, (1-Methyl-1H-1,2,4-triazol-3-yl)methyl (1-((3-chloro-4-fluorophenyl)carbamoyl)-2-ethyl-2,4,5,6-tetrahydrocyclopenta[c]pyrrol-4-yl)carbamate], under setting [4], the EC50 came out at 2.1 µM.
With `CCn1cc2c(c1C(=O)Nc1ccc(F)c(Cl)c1)CCC2NC(=O)OCc1ncn(C)n1` (single isomer, unassigned) [Compound 20, (1-Methyl-1H-1,2,4-triazol-3-yl)methyl (1-((3-chloro-4-fluorophenyl)carbamoyl)-2-ethyl-2,4,5,6-tetrahydrocyclopenta[c]pyrrol-4-yl)carbamate], the EC50 under setting [4] was 0.18 µM.
Consider `Cn1ccc(COC(=O)NC2CCc3c2cn(C)c3C(=O)Nc2ccc(F)c(Cl)c2)n1` (single isomer, unassigned) [Compound 21, (1-Methyl-1H-pyrazol-3-yl)methyl(1-((3-chloro-4-fluorophenyl)carbamoyl)-2-methyl-2,4,5,6-tetrahydrocyclopenta[c]pyrrol-4-yl)carbamate], for which the EC50 under setting [3] was 0.04 µM.
The same measure, in the same setting: the same measure for `Cn1ccc(COC(=O)NC2CCc3c2cn(C)c3C(=O)Nc2ccc(F)c(Cl)c2)n1` (single isomer, unassigned) [Compound 22, (1-Methyl-1H-pyrazol-3-yl)methyl(1-((3-chloro-4-fluorophenyl)carbamoyl)-2-methyl-2,4,5,6-tetrahydrocyclopenta[c]pyrrol-4-yl)carbamate]: 0.78 µM.
In the case of `Cn1cc2c(c1C(=O)Nc1ccc(F)c(Cl)c1)CCC2NC(=O)C1CC1` (single isomer, unassigned) [Compound 23, N-(3-Chloro-4-fluorophenyl)-4-(cyclopropanecarboxamido)-2-methyl-2,4,5,6-tetrahydrocyclopenta [c]pyrrole-1-carboxamide], under setting [4], the EC50 was 0.12 µM.
For the molecule `Cn1cc2c(c1C(=O)Nc1ccc(F)c(Cl)c1)CCC2NC(=O)C1CC1` (single isomer, unassigned) [Compound 24, N-(3-Chloro-4-fluorophenyl)-4-(cyclopropanecarboxamido)-2-methyl-2,4,5,6-tetrahydrocyclopenta [c]pyrrole-1-carboxamide], under setting [4], the EC50 is 1.6 µM.
In the case of `Cn1cnc(COC(=O)NC2CCc3c2cn(C)c3C(=O)Nc2ccc(F)c(Cl)c2)n1` (single isomer, unassigned) [Compound 25, (1-Methyl-1H-1,2,4-triazol-3-yl)methyl (1-((3-chloro-4-fluorophenyl)carbamoyl)-2-methyl-2,4,5,6-tetrahydrocyclopenta[c]pyrrol-4-yl)carbamate], the EC50 under setting [4] was 3.5 µM.
